Tests used:
[1] = Competitive inhibition of bovine pancreas trypsin assessed as release of para-nitroaniline using L-BAPA as substrate in presence of 4-nitrophenyl 4-guanidinobenzoate hydrochloride as inhibitor at pH 7.2 at 25 degC; set-up: species or system Bos taurus
Bos taurus = species on record: Bos taurus; test: Competitive inhibition of bovine pancreas trypsin assessed as release of para-nitroaniline using L-BAPA as substrate at pH 7.2 in absence of inhibitor at 25 degC
[2] = Stability of the compound assessed as bovine trypsin-mediated hydrolysis for 6 days by NMR spectroscopy; type: ADME, Bos taurus; settings: cattle, isolated protein, 144 h; time 6 day
[3] = Competitive inhibition of bovine trypsin using Z-Arg-SBzl as substrate at pH 7.5 at 25 degC; set-up: species or system Bos taurus

N=C(N)Nc1ccc(C=O)cn1
Ki [1]: 289 µM

Cc1ccnc(NC(=N)N)c1
Ki [1]: 119 µM

N=C(N)Nc1ccc(C(F)(F)F)cn1
Ki [1]: 218 µM | V0 (Bos taurus): 10.3 10^-8M/s

N=C(N)Nc1ccc(Cl)cn1
Ki [1]: 34.7 µM | V0 (Bos taurus): 8.26 10^-8M/s

CC(=O)c1ccc(NC(=N)N)nc1
Ki [1]: 5040 µM

N=C(N)Nc1ccc(Cl)cc1
Ki [1]: 127 µM

N=C(N)Nc1ccc(F)cn1
Ki [1]: 144 µM | V0 (Bos taurus): 3.79 10^-8M/s

N=C(N)Nc1cccnc1
Ki [1]: 950 µM

COC(=O)c1ccc(NC(=N)N)nc1.O=C(O)C(F)(F)F
Ki [1]: 1080 µM | Stabilty [2]: Stable

Cc1cccc(NC(=N)N)n1
Ki [1]: 91.3 µM

N=C(N)Nc1ccc(I)cn1
Ki [1]: 15.1 µM | V0 (Bos taurus): 4.4 10^-8M/s

CN(C)/C=N/c1ccc(Br)cn1
Ki [1]: > 17200 µM

N=C(N)Nc1ccc(-c2ccccc2)cn1
Ki [1]: 955 µM

N=C(N)c1ccccc1 [BENZAMIDINE]
Ki [3]: 35 µM

N=C(N)Nc1ccccn1
Ki [1]: 83.2 µM | V0 (Bos taurus): 8.09 10^-8M/s

Cc1cccnc1NC(=N)N
Ki [1]: 14 µM

N=C(N)Nc1ccncn1
Ki [1]: 514 µM

Cc1ccc(NC(=N)N)nc1
Ki [1]: 104 µM

CON(C)C(=O)c1ccc(NC(=N)N)nc1
Ki [1]: 2550 µM

N=C(N)Nc1ccc(Br)cn1
Ki [1]: 20.5 µM | V0 (Bos taurus): 3.85 10^-8M/s
